Reference: ChEMBL document CHEMBL1122843, “Opioid receptor interactions and conformations of the 6 alpha and 6 beta epimers of oxymorphamine. Solid-state conformation of 6 alpha-oxymorphamine” (J Med Chem, 1985)

Columns and labels:
Mu-type opioid receptor = Mu-type opioid receptor (Rattus norvegicus, UniProt P33535); test: Compound was evaluated for binding affinity against Opioid receptor mu 1 in rat brain membranes using [125I]-Tyr-D-Ala-Gly-NMePhe-Met; format: cell membranes; conditions: read-out: I50
Sequence of Mu-type opioid receptor (P33535 whole entry): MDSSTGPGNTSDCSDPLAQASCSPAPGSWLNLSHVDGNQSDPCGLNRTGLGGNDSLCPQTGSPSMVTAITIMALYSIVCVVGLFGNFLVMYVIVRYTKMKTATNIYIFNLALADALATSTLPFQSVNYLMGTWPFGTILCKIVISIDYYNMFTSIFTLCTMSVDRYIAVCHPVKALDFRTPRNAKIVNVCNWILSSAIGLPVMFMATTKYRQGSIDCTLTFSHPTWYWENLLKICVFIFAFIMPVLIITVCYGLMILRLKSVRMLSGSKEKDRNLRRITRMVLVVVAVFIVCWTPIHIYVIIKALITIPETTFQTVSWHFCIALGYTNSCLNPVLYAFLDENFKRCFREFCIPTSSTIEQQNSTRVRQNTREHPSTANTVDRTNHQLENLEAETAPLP

[1] = target: Delta-type opioid receptor (Rattus norvegicus, UniProt P33533); test: Compound was evaluated for binding affinity against Opioid receptor delta 1 in rat brain membranes using [125I]-D-Ala2-Leu5-enkephalin; format: cell membranes; conditions: read-out: I50
Sequence of Delta-type opioid receptor (P33533 whole entry): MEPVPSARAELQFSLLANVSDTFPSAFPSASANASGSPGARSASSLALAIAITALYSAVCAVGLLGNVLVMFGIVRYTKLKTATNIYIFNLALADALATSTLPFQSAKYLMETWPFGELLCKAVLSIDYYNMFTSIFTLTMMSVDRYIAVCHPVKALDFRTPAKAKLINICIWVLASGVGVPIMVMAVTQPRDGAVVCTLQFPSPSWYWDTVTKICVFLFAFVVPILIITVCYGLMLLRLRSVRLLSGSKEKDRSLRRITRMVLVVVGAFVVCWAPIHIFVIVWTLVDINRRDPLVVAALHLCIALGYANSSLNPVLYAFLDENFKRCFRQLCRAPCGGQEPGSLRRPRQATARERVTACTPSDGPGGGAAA

Row | Compound | IC50 (Mu-type opioid receptor) [nM] | IC50 [1] [nM]
1 | CN1CC[C@]23c4c5ccc(O)c4O[C@H]2[C@H](N)CC[C@@]3(O)[C@H]1C5 | 9 | 110
2 | CN1CC[C@]23c4c5ccc(O)c4O[C@H]2[C@@H](N)CC[C@@]3(O)[C@H]1C5 | 13 | 250
